The text below walks through data of patent US20050065208A1, “Benzofuranes and their use in the treatment of atrial fibrillation” (priority 2001, published 2005).

Broadly, the IC50 is the concentration needed to halve the response being measured.

INa, depolarizing Na-current, sequence (Q14524 whole entry): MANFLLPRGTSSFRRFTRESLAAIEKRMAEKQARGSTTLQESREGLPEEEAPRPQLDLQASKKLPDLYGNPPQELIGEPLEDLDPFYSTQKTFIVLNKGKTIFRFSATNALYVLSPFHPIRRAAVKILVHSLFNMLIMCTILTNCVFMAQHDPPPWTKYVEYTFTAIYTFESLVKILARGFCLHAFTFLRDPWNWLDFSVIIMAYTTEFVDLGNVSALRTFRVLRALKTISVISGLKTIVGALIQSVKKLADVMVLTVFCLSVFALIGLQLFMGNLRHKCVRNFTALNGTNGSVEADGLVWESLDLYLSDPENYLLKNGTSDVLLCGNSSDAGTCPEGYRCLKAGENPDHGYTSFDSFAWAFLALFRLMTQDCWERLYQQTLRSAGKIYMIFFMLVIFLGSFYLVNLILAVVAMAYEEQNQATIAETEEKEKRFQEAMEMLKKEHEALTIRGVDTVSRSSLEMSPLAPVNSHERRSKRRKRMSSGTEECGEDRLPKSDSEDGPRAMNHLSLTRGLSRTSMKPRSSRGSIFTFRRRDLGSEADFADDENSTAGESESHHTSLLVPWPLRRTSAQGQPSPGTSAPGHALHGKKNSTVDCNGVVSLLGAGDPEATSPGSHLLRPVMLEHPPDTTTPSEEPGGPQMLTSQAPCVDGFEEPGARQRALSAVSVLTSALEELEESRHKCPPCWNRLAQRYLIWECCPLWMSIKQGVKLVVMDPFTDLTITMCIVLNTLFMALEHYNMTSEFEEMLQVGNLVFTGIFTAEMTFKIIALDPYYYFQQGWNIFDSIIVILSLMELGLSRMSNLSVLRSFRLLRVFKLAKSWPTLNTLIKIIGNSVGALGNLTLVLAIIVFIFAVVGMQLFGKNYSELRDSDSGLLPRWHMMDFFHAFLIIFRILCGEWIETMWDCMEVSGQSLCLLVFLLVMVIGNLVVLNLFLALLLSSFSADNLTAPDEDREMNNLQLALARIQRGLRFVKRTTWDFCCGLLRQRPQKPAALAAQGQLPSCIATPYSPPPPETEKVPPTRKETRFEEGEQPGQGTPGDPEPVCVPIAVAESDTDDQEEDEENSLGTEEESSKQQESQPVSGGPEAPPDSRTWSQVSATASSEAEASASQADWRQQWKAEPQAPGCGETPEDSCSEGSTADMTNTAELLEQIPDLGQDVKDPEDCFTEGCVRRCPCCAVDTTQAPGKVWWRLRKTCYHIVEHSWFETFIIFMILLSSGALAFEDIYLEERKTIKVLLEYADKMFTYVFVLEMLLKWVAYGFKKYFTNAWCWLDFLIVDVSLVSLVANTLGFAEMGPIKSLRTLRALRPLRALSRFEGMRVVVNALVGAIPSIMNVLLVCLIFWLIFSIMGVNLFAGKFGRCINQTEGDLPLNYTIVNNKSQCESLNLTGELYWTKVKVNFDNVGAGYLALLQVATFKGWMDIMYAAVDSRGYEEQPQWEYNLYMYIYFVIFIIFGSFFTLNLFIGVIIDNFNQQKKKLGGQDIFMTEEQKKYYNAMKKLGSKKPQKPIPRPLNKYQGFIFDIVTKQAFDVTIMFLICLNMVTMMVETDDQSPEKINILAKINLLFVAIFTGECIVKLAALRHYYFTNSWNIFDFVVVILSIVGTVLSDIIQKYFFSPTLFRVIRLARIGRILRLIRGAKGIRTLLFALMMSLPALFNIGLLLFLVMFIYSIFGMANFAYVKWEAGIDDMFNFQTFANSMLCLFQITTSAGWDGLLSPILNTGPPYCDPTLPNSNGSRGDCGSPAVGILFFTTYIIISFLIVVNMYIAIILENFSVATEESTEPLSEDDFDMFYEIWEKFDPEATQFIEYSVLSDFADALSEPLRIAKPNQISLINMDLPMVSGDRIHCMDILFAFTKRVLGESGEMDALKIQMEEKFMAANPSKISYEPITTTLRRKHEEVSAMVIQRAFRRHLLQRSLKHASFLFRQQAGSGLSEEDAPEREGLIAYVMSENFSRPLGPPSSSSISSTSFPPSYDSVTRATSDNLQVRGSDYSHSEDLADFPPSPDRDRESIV

The target in one experiment is T1, IK(Ado), adenosine activated K-current (Homo sapiens, UniProt P48544+P48549).
T1 construct: electrophysiology technique applied to cardiomyocyte cultures; endogenous in cells
T1 sequence (P48549 1-501): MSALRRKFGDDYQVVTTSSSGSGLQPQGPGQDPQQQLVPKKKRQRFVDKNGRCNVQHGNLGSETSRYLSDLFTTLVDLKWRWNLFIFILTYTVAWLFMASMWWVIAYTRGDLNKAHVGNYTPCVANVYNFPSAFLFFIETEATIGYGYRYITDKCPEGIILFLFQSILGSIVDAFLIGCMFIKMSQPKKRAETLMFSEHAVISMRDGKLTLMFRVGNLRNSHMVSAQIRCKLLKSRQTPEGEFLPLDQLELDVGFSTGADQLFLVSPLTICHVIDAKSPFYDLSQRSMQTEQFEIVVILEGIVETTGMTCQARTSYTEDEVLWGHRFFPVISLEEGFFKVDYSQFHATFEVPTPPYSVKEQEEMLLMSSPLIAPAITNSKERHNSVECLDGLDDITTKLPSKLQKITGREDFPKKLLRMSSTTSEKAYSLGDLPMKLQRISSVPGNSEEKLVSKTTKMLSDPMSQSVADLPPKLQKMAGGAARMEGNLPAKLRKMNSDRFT
T1 sequence (P48544 1-419): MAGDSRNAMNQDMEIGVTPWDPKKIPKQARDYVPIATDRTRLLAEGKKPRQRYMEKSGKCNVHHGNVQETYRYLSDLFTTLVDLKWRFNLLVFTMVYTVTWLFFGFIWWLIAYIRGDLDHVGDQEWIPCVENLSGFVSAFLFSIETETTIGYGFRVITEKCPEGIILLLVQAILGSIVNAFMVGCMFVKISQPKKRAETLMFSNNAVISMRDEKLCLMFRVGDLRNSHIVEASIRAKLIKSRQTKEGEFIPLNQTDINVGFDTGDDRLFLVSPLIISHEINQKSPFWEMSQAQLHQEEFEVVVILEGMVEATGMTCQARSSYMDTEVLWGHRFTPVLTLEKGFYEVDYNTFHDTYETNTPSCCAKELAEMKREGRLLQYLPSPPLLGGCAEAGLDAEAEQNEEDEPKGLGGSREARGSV
The experiment is described as follows: Voltage clamp on cardiomyocyte cultures: inhibition of adenosine-induced K-current.
Details: not given
Type of experiment: cell-based. The text has this: (§1) In the present invention acute and chronic effects of various compounds have been investigated by using electrophysiology technique applied to cardiomyocyte cultures.
(§2) The inhibitory effects occur within seconds after induction of the current with ACh, Ado or dinitrophenole (DNP reduces intracellular ATP). The acute inhibitory effects caused by the compounds of the present invention on these K-currents in cardiac muscle tissue had not previously been discovered. The reasons for this include the fact that these ligand activated K-currents (IK(Ado), IK(ACh) and IK(ATP)) are preferentially active in the atrial cardiomyocytes (Workman A J et al. Cardiovasc Res 1999 September;43(4):974-84; Koumi S-I, and Wasserstorm A. American Journal of Physiology 266[35], H1812-H1821. 1994), while previous studies have been carried out with tissue from cardiac ventricles. Furthermore, IK(Ado) and IK(ACh) must first be induced via the M2 or A1 receptor (with ACh and Ado respectively) before any inhibition can be observed. Without any agonist at the extracellular site of the membrane these ligand-gated channels probably have only minor roles in shaping repolarization but, when activated by extracellular acetylcholine or adenosine, they can substantially shorten action potential duration in the atrium (Tristani-Firouzi M et al. Am J Med 2001 January; 110(1):50-9).
(§3) The following Table 1 illustrates the potency (IC50-values) of compounds of formulae I and II compared with other anti-arrhythmic drugs to inhibit the transmembrane currents IK(Ado) and IK(ACh) after stimulation of the currents with Adenosine or Acetylcholine (or Carbachol).
Take `N[C@@H](Cc1cc(I)c(Oc2ccc(O)c(I)c2)c(I)c1)C(=O)O` [Example T3, triiodthyronine]: the “Acute effects on IK(Ado)” value is reported as “does not have acute effects”.

Still in this experiment, the particulars now being: current induced by adenosine.
Turning to `Cc1oc2ccccc2c1C(=O)c1cc(I)c(O)c(I)c1` [Example E5, 2-methyl-3-(3,5-diiodo-4-hydroxy-benzoyl)benzofuran], the IC50 was determined as 1 µM.

A further experiment addresses T2, IK(ACh), AcetylCholine activated K-current (Homo sapiens, UniProt P48544+P48549).
T2 construct: electrophysiology technique applied to cardiomyocyte cultures; endogenous in cells
T2 sequence (P48549 1-501): T1 sequence (P48549 1-501)
T2 sequence (P48544 1-419): T1 sequence (P48544 1-419)
The experiment is described as follows: Voltage clamp on cardiomyocyte cultures: inhibition of K-current induced by ACh or carbachol. Type of experiment: cell-based.
Details: not given
Source text: as §1, §2, §3
With `N[C@@H](Cc1cc(I)c(Oc2ccc(O)c(I)c2)c(I)c1)C(=O)O` [Example T3, triiodthyronine], the “Acute effects on IK(ACh)” value is on record as “does not have acute effects”.

Staying with this experiment, now noted: current induced by ACh or carbachol.
As for `Cc1oc2ccccc2c1C(=O)c1cc(I)c(O)c(I)c1` [Example E5, 2-methyl-3-(3,5-diiodo-4-hydroxy-benzoyl)benzofuran], the IC50 was 1 µM.

For a further experiment, the target named is T1, IK(Ado), adenosine activated K-current.
Experiment: not given
More on the design: key to Blocking activity on IK(Ado): Yes: The compound has been demonstrated to inhibit the particular current (reference within parenthesis).; No: The compound has been demonstrated to not inhibit the particular current (reference within parenthesis).; U: No data regarding interaction of the compound with the particular current has been found in the literature. The settings on record: Table 2, literature; cited from earlier work.
As for `CC(C)NCC(O)c1ccc(NS(C)(=O)=O)cc1` (racemic) [d,l-sotalol], the “Blocking activity on IK(Ado)” value was “No”.

As to `COc1ccc(C2CCN(CC[C@H]3CCOc4ccccc43)CC2)cc1OC` [Terikalant], the “Blocking activity on IK(Ado)” value is recorded as “Yes”.

The experiment is the same for the next values; noted with them: at 100 μM; literature; cited from earlier work.
In the case of `Cc1cccc(CCN2CCC(C(=O)c3ccc(NS(C)(=O)=O)cc3)CC2)n1` [Example E-4031], the “Inhibition of IK (Ado) Induced by Adenosine, effect at 100 μM” value was “Some effect at 100 μM”.

Regarding `Cn1c(NCCN(CCO)CCCc2ccc([N+](=O)[O-])cc2)cc(=O)n(C)c1=O` [MS-551], the “Inhibition of IK (Ado) Induced by Adenosine, effect at 100 μM” value was “Some effect at 100 μM”.

The same experiment, now with this note: current induced by adenosine; literature value; read-out: Inhibition of IK (Ado) Induced by Adenosine (IC50); cited from earlier work.
As to `COc1ccc(C2CCN(CC[C@H]3CCOc4ccccc43)CC2)cc1OC` [Terikalant], the IC50 was 2 µM.

The same experiment, now with this note: current induced by adenosine; literature; cited from earlier work.
On to `CC(C)NCC(O)c1ccc(NS(C)(=O)=O)cc1` (racemic) [d,l-sotalol], for which the “Inhibition of IK (Ado) Induced by Adenosine, in words” value is listed as “No effect”.

For another experiment, the target named is T2, IK(ACh), AcetylCholine activated K-current.
Experiment: not given
More on the design: key to Blocking activity on IK(ACh): Yes: The compound has been demonstrated to inhibit the particular current (reference within parenthesis).; No: The compound has been demonstrated to not inhibit the particular current (reference within parenthesis).; U: No data regarding interaction of the compound with the particular current has been found in the literature. The settings on record: Table 2, literature; cited from earlier work.
In the case of `CC(C)NCC(O)c1ccc(NS(C)(=O)=O)cc1` (racemic) [d,l-sotalol], the “Blocking activity on IK(ACh)” value is given as “Yes (Mori)”.

As to `COc1ccc(C2CCN(CC[C@H]3CCOc4ccccc43)CC2)cc1OC` [Terikalant], the “Blocking activity on IK(ACh)” value was “Yes”.

The same experiment, now with this note: current induced by ACh or carbachol; literature value; read-out: Inhibition of IK (ACh) (Induced by ACh or Carbachol) (IC50); cited from earlier work.
Regarding `CC(C)NCC(O)c1ccc(NS(C)(=O)=O)cc1` (racemic) [d,l-sotalol], the IC50 was 36 µM.

For `Cc1cccc(CCN2CCC(C(=O)c3ccc(NS(C)(=O)=O)cc3)CC2)n1` [Example E-4031], the IC50 was 8 µM.

As to `Cn1c(NCCN(CCO)CCCc2ccc([N+](=O)[O-])cc2)cc(=O)n(C)c1=O` [MS-551], the IC50 was 11 µM.

Regarding `COc1ccc(C2CCN(CC[C@H]3CCOc4ccccc43)CC2)cc1OC` [Terikalant], the IC50 is 2 µM.

In another experiment the target is T3, IK(ATP), ATP-sensitive K-current (Homo sapiens, UniProt Q14654).
T3 construct: electrophysiology technique applied to cardiomyocyte cultures; endogenous in cells; current induced with dinitrophenole
T3 sequence (Q14654 whole entry): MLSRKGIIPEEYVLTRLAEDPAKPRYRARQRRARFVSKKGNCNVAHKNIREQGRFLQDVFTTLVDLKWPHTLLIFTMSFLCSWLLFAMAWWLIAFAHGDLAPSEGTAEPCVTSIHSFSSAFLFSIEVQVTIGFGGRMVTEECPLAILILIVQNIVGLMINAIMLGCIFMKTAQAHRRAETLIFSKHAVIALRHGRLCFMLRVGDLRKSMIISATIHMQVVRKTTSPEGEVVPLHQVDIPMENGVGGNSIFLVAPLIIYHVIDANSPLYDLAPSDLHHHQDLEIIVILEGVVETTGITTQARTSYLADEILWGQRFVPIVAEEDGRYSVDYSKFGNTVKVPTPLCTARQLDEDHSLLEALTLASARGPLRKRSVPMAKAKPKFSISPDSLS
T3 sequence (O60706 whole entry partner): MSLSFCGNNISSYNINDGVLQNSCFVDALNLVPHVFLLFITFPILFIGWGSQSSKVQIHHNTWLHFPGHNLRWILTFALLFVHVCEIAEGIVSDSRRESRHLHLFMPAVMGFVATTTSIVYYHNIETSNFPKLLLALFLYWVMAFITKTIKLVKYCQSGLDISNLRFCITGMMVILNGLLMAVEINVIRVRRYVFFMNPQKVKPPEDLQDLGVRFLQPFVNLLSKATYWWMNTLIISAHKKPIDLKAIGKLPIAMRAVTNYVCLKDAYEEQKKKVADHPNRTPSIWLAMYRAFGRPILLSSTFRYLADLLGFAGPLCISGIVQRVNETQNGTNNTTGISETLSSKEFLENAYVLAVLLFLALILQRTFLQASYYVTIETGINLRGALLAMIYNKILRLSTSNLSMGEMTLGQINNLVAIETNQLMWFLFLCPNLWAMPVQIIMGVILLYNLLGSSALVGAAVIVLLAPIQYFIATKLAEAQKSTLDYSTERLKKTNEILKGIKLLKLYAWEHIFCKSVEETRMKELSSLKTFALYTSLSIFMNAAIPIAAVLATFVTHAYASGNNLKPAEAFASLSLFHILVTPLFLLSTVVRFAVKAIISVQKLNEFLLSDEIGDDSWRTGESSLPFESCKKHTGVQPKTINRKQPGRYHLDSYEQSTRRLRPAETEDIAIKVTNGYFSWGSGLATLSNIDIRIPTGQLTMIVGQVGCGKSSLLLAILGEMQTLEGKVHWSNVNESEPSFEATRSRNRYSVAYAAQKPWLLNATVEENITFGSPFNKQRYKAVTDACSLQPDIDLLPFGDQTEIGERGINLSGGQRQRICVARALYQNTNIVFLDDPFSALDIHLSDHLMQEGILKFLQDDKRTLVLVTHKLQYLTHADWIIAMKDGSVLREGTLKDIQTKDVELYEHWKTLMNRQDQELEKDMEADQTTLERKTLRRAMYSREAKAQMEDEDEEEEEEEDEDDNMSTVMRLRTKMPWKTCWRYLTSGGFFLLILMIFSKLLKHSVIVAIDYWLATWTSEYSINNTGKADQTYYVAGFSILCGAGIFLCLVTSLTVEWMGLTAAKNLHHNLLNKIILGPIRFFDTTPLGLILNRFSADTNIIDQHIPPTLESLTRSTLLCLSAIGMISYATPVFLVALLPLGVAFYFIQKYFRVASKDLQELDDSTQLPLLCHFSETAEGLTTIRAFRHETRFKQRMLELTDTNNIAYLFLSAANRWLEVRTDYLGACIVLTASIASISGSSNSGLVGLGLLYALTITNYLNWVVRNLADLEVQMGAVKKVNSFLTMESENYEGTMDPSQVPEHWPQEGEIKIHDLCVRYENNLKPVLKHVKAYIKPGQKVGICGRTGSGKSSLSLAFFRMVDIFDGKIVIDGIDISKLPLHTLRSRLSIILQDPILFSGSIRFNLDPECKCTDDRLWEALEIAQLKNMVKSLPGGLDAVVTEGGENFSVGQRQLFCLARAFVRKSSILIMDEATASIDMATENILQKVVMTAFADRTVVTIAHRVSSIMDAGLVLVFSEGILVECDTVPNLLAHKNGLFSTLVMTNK
Experiment: not given
More on the design: key: Yes: The compound has been demonstrated to inhibit the particular current (reference within parenthesis).; No: The compound has been demonstrated to not inhibit the particular current (reference within parenthesis).; U: No data regarding interaction of the compound with the particular current has been found in the literature. The settings on record: Table 2, literature; cited from earlier work.
`COc1ccc(C2CCN(CC[C@H]3CCOc4ccccc43)CC2)cc1OC` [Terikalant]: the “Blocking activity on IK(ATP)” value was “No”.

The subject of a further experiment is IK1, inward rectifier K-current.
Experiment: not given
Details: key: Yes: The compound has been demonstrated to inhibit the particular current (reference within parenthesis).; No: The compound has been demonstrated to not inhibit the particular current (reference within parenthesis).; U: No data regarding interaction of the compound with the particular current has been found in the literature. The note with it: Table 2, literature; cited from earlier work.
In the case of `CC(C)NCC(O)c1ccc(NS(C)(=O)=O)cc1` (racemic) [d,l-sotalol], the “Blocking activity on IK1” value is “Yes”.

Turning to `COc1ccc(C2CCN(CC[C@H]3CCOc4ccccc43)CC2)cc1OC` [Terikalant], the “Blocking activity on IK1” value is recorded as “Yes”.

For a further experiment, the target named is IKs, slow component of the delayed rectifier K-current (Homo sapiens, UniProt P51787).
Experiment: not given
Details: key: Yes: The compound has been demonstrated to inhibit the particular current (reference within parenthesis).; No: The compound has been demonstrated to not inhibit the particular current (reference within parenthesis).; U: No data regarding interaction of the compound with the particular current has been found in the literature. The note with it: Table 2, literature; cited from earlier work.
In the case of `CC(C)NCC(O)c1ccc(NS(C)(=O)=O)cc1` (racemic) [d,l-sotalol], the “Blocking activity on IKs” value is reported as “No”.

Regarding `COc1ccc(C2CCN(CC[C@H]3CCOc4ccccc43)CC2)cc1OC` [Terikalant], the “Blocking activity on IKs” value is “Yes”.

In a further experiment the test system is Ito, transient outward K-current.
Experiment: not given
More on the design: key: Yes: The compound has been demonstrated to inhibit the particular current (reference within parenthesis).; No: The compound has been demonstrated to not inhibit the particular current (reference within parenthesis).; U: No data regarding interaction of the compound with the particular current has been found in the literature. The settings on record: Table 2, literature; cited from earlier work.
Take `CC(C)NCC(O)c1ccc(NS(C)(=O)=O)cc1` (racemic) [d,l-sotalol]: the “Blocking activity on Ito” value is “Yes”.

With `COc1ccc(C2CCN(CC[C@H]3CCOc4ccccc43)CC2)cc1OC` [Terikalant], the “Blocking activity on Ito” value is given as “Yes”.

Another experiment has as its target INa, depolarizing Na-current (Homo sapiens, UniProt Q14524).
Experiment: not given
More on the design: key: Yes: The compound has been demonstrated to inhibit the particular current (reference within parenthesis).; No: The compound has been demonstrated to not inhibit the particular current (reference within parenthesis).; U: No data regarding interaction of the compound with the particular current has been found in the literature. The note with it: Table 2, literature; cited from earlier work.
As to `CC(C)NCC(O)c1ccc(NS(C)(=O)=O)cc1` (racemic) [d,l-sotalol], the “Blocking activity on INa” value is given as “No”.

Turning to `COc1ccc(C2CCN(CC[C@H]3CCOc4ccccc43)CC2)cc1OC` [Terikalant], the “Blocking activity on INa” value was “No”.
